Drawing on PubChem BioAssay (NCI), this text covers TGI for 13 compounds.

Test systems include NCI/ADR-RES ovarian; MALME-3M melanoma; RXF 393 renal; HS 578T breast; IGROV1 ovarian; SK-MEL-2 melanoma; LOX IMVI melanoma; COLO 205 colon; HOP-92 NSCLC; HOP-62 NSCLC.
Assay in all cases: NCI-60 cell line screen, 48 h

Structures are written as SMILES.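 Exposure lasted 48 hours, with cells grown in 96-well plates and compounds tested at five concentrations. Definition used: TGI = concentration required for complete inhibition of growth.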 Some results are limits rather than exact numbers.

`CCCNc1ncnc2[nH]ncc12`: the TGI in the assay with NCI/ADR-RES ovarian, with MALME-3M melanoma, with RXF 393 renal, in the assay with HS 578T breast, with IGROV1 ovarian and in the assay with SK-MEL-2 melanoma was above 100 µM each time. In addition, the TGI in the assay on LOX IMVI melanoma, with COLO 205 colon, with HOP-92 NSCLC and in the assay with HOP-62 NSCLC was above 100 µM each time.
In the case of `CN1C(=O)C(O)CC1c1cccc(C(F)(F)F)c1` (centres undefined), the TGI in the assay on NCI/ADR-RES ovarian, in the assay on MALME-3M melanoma, in the assay on RXF 393 renal, with HS 578T breast, in the assay on IGROV1 ovarian and in the assay on SK-MEL-2 melanoma was above 100 µM each time. For the same compound, the TGI in the assay with LOX IMVI melanoma, in the assay with COLO 205 colon, with HOP-92 NSCLC and with HOP-62 NSCLC was above 100 µM throughout.
Regarding `Cc1ccccc1OC(C)C(=O)NN1C(=O)CC(=O)N(c2ccccc2)C1=S` (centres undefined), the TGI in the assay with NCI/ADR-RES ovarian, in the assay with MALME-3M melanoma, in the assay on RXF 393 renal, with HS 578T breast, in the assay on IGROV1 ovarian and in the assay on SK-MEL-2 melanoma was above 100 µM each time. For the same compound, the TGI with LOX IMVI melanoma, in the assay with COLO 205 colon, in the assay with HOP-92 NSCLC and with HOP-62 NSCLC was above 100 µM in each case.
For the compound `COc1ccc(-c2cc(C(O)C3CCCCN3)c3ccccc3n2)cc1` (centres undefined), the TGI with NCI/ADR-RES ovarian is 39 µM; in the assay with MALME-3M melanoma, 28.9 µM; in the assay on RXF 393 renal, 11.3 µM; in the assay on HS 578T breast, 40.3 µM; in the assay with IGROV1 ovarian, 22.4 µM; with SK-MEL-2 melanoma, 18.5 µM. Further, the TGI with LOX IMVI melanoma worked out at 16 µM; in the assay with COLO 205 colon, 3.54 µM; with HOP-92 NSCLC it was 13.1 µM; in the assay with HOP-62 NSCLC, 24.3 µM.
On to `Cc1[nH]c(=O)[nH]c(=S)c1C(=O)Nc1cccc2cc3ccccc3cc12`, for which the TGI with NCI/ADR-RES ovarian, in the assay on MALME-3M melanoma, in the assay on RXF 393 renal, in the assay with HS 578T breast, in the assay with IGROV1 ovarian and in the assay on SK-MEL-2 melanoma was above 100 µM in each case. In addition, the TGI with LOX IMVI melanoma, in the assay with COLO 205 colon, in the assay with HOP-92 NSCLC and in the assay with HOP-62 NSCLC was above 100 µM each time.
Regarding `NS(=O)(=O)c1ccc(NNc2c3ccccc3nc3c(C(=O)Nc4ccc(S(=O)(=O)Nc5ncccn5)cc4)cccc23)cc1`, the TGI in the assay with NCI/ADR-RES ovarian, with MALME-3M melanoma, in the assay on RXF 393 renal, with HS 578T breast, in the assay on IGROV1 ovarian and in the assay on SK-MEL-2 melanoma was above 25 µM in each case. The TGI in the assay with LOX IMVI melanoma, in the assay on COLO 205 colon, in the assay on HOP-92 NSCLC and with HOP-62 NSCLC was above 25 µM throughout.
In the case of `COc1ccc(CCN2CCc3c(C)c(C#N)c4nc5ccccc5n4c32)cc1OC`, the TGI in the assay on NCI/ADR-RES ovarian was above 100 µM; in the assay with MALME-3M melanoma, 99.8 µM; with RXF 393 renal, above 100 µM; with HS 578T breast it was 60.6 µM; in the assay on IGROV1 ovarian, above 100 µM; in the assay with SK-MEL-2 melanoma, 44.7 µM. The TGI was above 100 µM with LOX IMVI melanoma, 89.8 µM in the assay on COLO 205 colon, 90.6 µM in the assay on HOP-92 NSCLC and above 100 µM in the assay with HOP-62 NSCLC.
On to `COc1ccc(C(O)CC(O)(C(F)(F)F)C(F)(F)F)cc1` (centres undefined), for which the TGI came out at 59.7 µM in the assay on NCI/ADR-RES ovarian; 49.1 µM with MALME-3M melanoma; 62 µM in the assay on RXF 393 renal; 61.7 µM in the assay on HS 578T breast; 84.4 µM with IGROV1 ovarian; 40.8 µM with SK-MEL-2 melanoma. The TGI in the assay on LOX IMVI melanoma was 36 µM; in the assay with COLO 205 colon it was 33.8 µM; with HOP-92 NSCLC, 44.4 µM; in the assay with HOP-62 NSCLC it was above 100 µM.
In the case of `O=C(/C=C/c1cccs1)c1ccccc1Cl`, the TGI with NCI/ADR-RES ovarian is 44.9 µM; in the assay with MALME-3M melanoma, 26.7 µM; in the assay with RXF 393 renal, 23.7 µM; in the assay on HS 578T breast, 35.5 µM; in the assay on IGROV1 ovarian, above 65 µM; with SK-MEL-2 melanoma, 43.6 µM. Further, the TGI is 32.9 µM in the assay with LOX IMVI melanoma, 38.6 µM with COLO 205 colon, 97.5 µM in the assay on HOP-92 NSCLC and 32.1 µM with HOP-62 NSCLC.
Take `Cc1ccc(/C(O)=C/c2nc3ccc([N+](=O)[O-])cc3nc2/C=C(\O)c2ccc(C)cc2)cc1`: the TGI in the assay with NCI/ADR-RES ovarian was above 100 µM; with MALME-3M melanoma, above 100 µM; in the assay on RXF 393 renal it was above 77.5 µM; in the assay on HS 578T breast, above 91.4 µM; with IGROV1 ovarian it was above 100 µM; in the assay on SK-MEL-2 melanoma, above 100 µM. Further, the TGI in the assay with LOX IMVI melanoma is above 100 µM; in the assay on COLO 205 colon, above 100 µM; in the assay with HOP-92 NSCLC, above 100 µM; in the assay on HOP-62 NSCLC, 75.8 µM.
Regarding `CCN(CC)c1nc(N(C)C)c2ccccc2n1`, the TGI is above 100 µM in the assay on NCI/ADR-RES ovarian; above 100 µM in the assay with MALME-3M melanoma; 76.6 µM in the assay with RXF 393 renal; above 100 µM with HS 578T breast; above 100 µM in the assay on IGROV1 ovarian; above 100 µM with SK-MEL-2 melanoma. In addition, the TGI was above 100 µM with LOX IMVI melanoma, 83.3 µM in the assay with COLO 205 colon, above 100 µM in the assay with HOP-92 NSCLC and above 100 µM in the assay with HOP-62 NSCLC.
Turning to `CC(C)C(=O)Oc1cc2c(=O)oc3c(OC(=O)C(C)C)c(OC(=O)C(C)C)cc4c(=O)oc(c1OC(=O)C(C)C)c2c34`, the TGI in the assay on NCI/ADR-RES ovarian, with MALME-3M melanoma, in the assay on RXF 393 renal, in the assay on HS 578T breast, in the assay with IGROV1 ovarian and in the assay with LOX IMVI melanoma was above 100 µM each time. Also, the TGI in the assay with COLO 205 colon, with HOP-92 NSCLC and in the assay with HOP-62 NSCLC was above 100 µM throughout.
Regarding `CC(C)(C)OC(=O)n1cc(C2CN(O)C(=O)C23CCC(=O)N3Cc2ccccc2)c2ccccc21` (centres undefined), the TGI with NCI/ADR-RES ovarian was above 100 µM; with MALME-3M melanoma it was above 100 µM; with RXF 393 renal it was above 100 µM; in the assay with HS 578T breast, above 100 µM; in the assay on IGROV1 ovarian, 48.5 µM; in the assay on SK-MEL-2 melanoma, 35.7 µM. Moreover, the TGI in the assay on LOX IMVI melanoma is 55.3 µM; with COLO 205 colon it was above 100 µM; in the assay with HOP-92 NSCLC, 50.8 µM; in the assay with HOP-62 NSCLC, above 100 µM.
